# Read-outs that look alike come from different tables or passages of the source.
# Columns and labels:
# Format in all cases: cell-based
# [1] = test system: Staphylococcus aureus ATCC 6538-P; experiment: time kill assay, S. aureus
# Protocol: Staphylococcus aureus infections can lead to many skin diseases. Impetigo, furuncles, folliculitis, and carbuncles are all diseases caused by an infection of S. aureus. A microbiological study used a time kill assay with Staphylococcus aureus ATCC 6538-P as an indicator of the antibacterial activity of proguanil. […] A broth only control as well as a solvent 10% DGME control were added to the vials so that the total test volume was 15 ml. One hundred μl of a freshly grown suspension of the Staphylococcus aureus was then added at time zero so that the initial bacterial suspension was between 10^3 and 10^4 CFU/ml. All test and control suspensions were then incubated under aerobic conditions at 35° C. […] These plates were incubated aerobically at 35° C. for 1-3 days. Surviving colonies were then counted and the CFU/ml of test and control suspensions calculated and graphed.
# [2] = test system: Trichomonas vaginalis ATCC 30001; experiment: viability over time assay, T. vaginalis; settings: for viability at 10 µg/mL / viability at 20 µg/mL / viability at 40 µg/mL / viability at 80 µg/mL / viability at 160 µg/mL / viability at 320 µg/mL: Trichomonas vaginalis, ATCC30001
# Protocol: Trichomonas vaginalis infections in females usually involves vaginal discharge and vulvovaginal irritation but is usually asymptomatic in males. A viability over time assay was used to test the effects of varying concentrations of proguanil on a culture of the protozoa Trichomonas vaginalis ATCC 30001. A suspension of T. vaginalis was prepared and inoculated into microtiter plate wells containing supplemented Trichomonas Medium and proguanil concentrations of 320, 160, 80, 40, 20, and 10 μg/ml. A growth control using pyrogen-free water plus supplemented Trichomonas medium was used in place of the drug because it has no antiprotozoal effect. DGME was the solvent used to dissolve the proguanil, accordingly, a small amount of 10% DGME was used as the solvent control in the medium. These inoculated broth solutions were then allowed to incubate for a period of 6 hours. Samples were taken at 1, 3, and 6 hours and observed using a phase contrast microscope. Multiple microscope fields were counted and the number of viable and nonviable T. vaginalis recorded. In the experiment, the effects of proguanil on the T. vaginalis were observed as loss of flagella movement, loss of undulating membrane movement, and loss of cell refractivity.
# [3] = test system: Streptococcus dysgalactiae subsp. equisimilis ATCC 6644; experiment: time kill assay, S. dysgalactiae (Group G)
# Protocol: Streptococcus dysgalactiae (Group G) infections can lead to skin diseases such as erysipelas and cellulitis. A time kill assay was used to test the effects of varying concentrations of proguanil on a culture of Streptococcus dysgalactiae subsp. equisimilis ATCC 6644. An inoculum of S. dysgalactiae was prepared and inoculated in vials containing Muller Hinton II broth and proguanil concentrations of 160, 80, 16, 8, and 1.6 μg/ml. A growth control using phosphate buffered saline A (PBSA) plus Mueller Hinton II broth was used in place of the drug because it has no antimicrobial effect. DGME was the solvent used to dissolve the proguanil, accordingly, 10% DGME was used as the solvent control. These inoculated broth solutions were then allowed to incubate for a period of 72 hours. Samples were taken at 0, 4, 24, 48 and 72 hours and spiral plated so the CFU/ml could be calculated. In the experiments, the effects of proguanil on the S. dysgalactiae were observed.
structure (smiles),measurement,setting,value
"CC(C)NC(=N)NC(=N)Nc1ccc(Cl)cc1 [Proguanil, N-(4-Chlorophenyl)-N′-(1-methylethyl)imidodicarbonimidic diamide]",inhibition of the bacteria,"[1]; 160 μg/ml, all time points, similar to the DGME solvent control",slight inhibition
same,kill of S. aureus,"[1]; 320 μg/ml, by the 24 hour time point and later through 72 hours",complete kill
same,kill of the bacteria,"[1]; 1280, 640, and 480 μg/ml, by the 4 hour time point and later through 72 hours",complete kill
same,Relative Sensitivity (Compared to Other Strains Tested),[1]; Staphylococcus aureus ATCC-6538P,Moderately
same,Approximate Inhibitory Level,"[1]; Staphylococcus aureus ATCC-6538P, level at which partial or total inhibition of growth is observed",320 µg/mL
same,Nonviable,"[2]; 10 ug/ml, 1 Hour",24
same,Viable,"[2]; 10 ug/ml, 1 Hour",26
same,Nonviable,"[2]; 10 ug/ml, 3 Hour",25
same,Viable,"[2]; 10 ug/ml, 3 Hour",25
same,Nonviable,"[2]; 10 ug/ml, 6 Hour",25
same,Viable,"[2]; 10 ug/ml, 6 Hour",25
same,Nonviable,"[2]; 20 ug/ml, 1 Hour",19
same,Viable,"[2]; 20 ug/ml, 1 Hour",31
same,Nonviable,"[2]; 20 ug/ml, 3 Hour",28
same,Viable,"[2]; 20 ug/ml, 3 Hour",22
same,Nonviable,"[2]; 20 ug/ml, 6 Hour",29
same,Viable,"[2]; 20 ug/ml, 6 Hour",21
same,Nonviable,"[2]; 40 ug/ml, 1 Hour",22
same,Viable,"[2]; 40 ug/ml, 1 Hour",28
same,Nonviable,"[2]; 40 ug/ml, 3 Hour",25
same,Viable,"[2]; 40 ug/ml, 3 Hour",25
same,Nonviable,"[2]; 40 ug/ml, 6 Hour",27
same,Viable,"[2]; 40 ug/ml, 6 Hour",26
same,Nonviable,"[2]; 80 ug/ml, 1 Hour",28
same,Viable,"[2]; 80 ug/ml, 1 Hour",22
same,Nonviable,"[2]; 80 ug/ml, 3 Hour",32
same,Viable,"[2]; 80 ug/ml, 3 Hour",18
same,Nonviable,"[2]; 80 ug/ml, 6 Hour",34
same,Viable,"[2]; 80 ug/ml, 6 Hour",8
same,effect on T. vaginalis viability,"[2]; 80 μg/ml, at 3 and 6 hours",next greatest effect
same,Nonviable,"[2]; 160 ug/ml, 1 Hour",30
same,Viable,"[2]; 160 ug/ml, 1 Hour",20
same,Nonviable,"[2]; 160 ug/ml, 3 Hour",27
same,Viable,"[2]; 160 ug/ml, 3 Hour",24
same,Nonviable,"[2]; 160 ug/ml, 6 Hour",43
same,Viable,"[2]; 160 ug/ml, 6 Hour",9
same,effect on T. vaginalis,"[2]; 160 μg/ml, at 6 hours",strong inhibition and killing effect
same,Nonviable,"[2]; 320 ug/ml, 1 Hour",32
same,Viable,"[2]; 320 ug/ml, 1 Hour",18
same,Nonviable,"[2]; 320 ug/ml, 3 Hour",40
same,Viable,"[2]; 320 ug/ml, 3 Hour",13
same,Nonviable,"[2]; 320 ug/ml, 6 Hour",14
same,Viable,"[2]; 320 ug/ml, 6 Hour",0
same,effect on T. vaginalis,"[2]; 320 μg/ml, at 1 hour",early inhibition and killing effect
same,surviving T. vaginalis,"[2]; 320 μg/ml, at 6 hours",no surviving T. vaginalis could be observed
same,Relative Sensitivity (Compared to Other Strains Tested),[2]; Trichomonas vaginalis (parasitic protozoan) ATCC 30001,Very Sensitive
same,Approximate Inhibitory Level,"[2]; Trichomonas vaginalis (parasitic protozoan) ATCC 30001, level at which partial or total inhibition of growth is observed",80 µg/mL
same,viability at 10 µg/mL,"[2]; 10 ug/ml, 1 Hour, read-out: PerCent Viable",52%
same,viability at 10 µg/mL,"[2]; 10 ug/ml, 1 Hour, read-out: Percent Viable of Growth Control",118%
same,viability at 10 µg/mL,"[2]; 10 ug/ml, 3 Hour, read-out: PerCent Viable",50%
same,viability at 10 µg/mL,"[2]; 10 ug/ml, 3 Hour, read-out: Percent Viable of Growth Control",96.2%
same,viability at 10 µg/mL,"[2]; 10 ug/ml, 6 Hour, read-out: PerCent Viable",50%
same,viability at 10 µg/mL,"[2]; 10 ug/ml, 6 Hour, read-out: Percent Viable of Growth Control",86.2%
same,viability at 20 µg/mL,"[2]; 20 ug/ml, 1 Hour, read-out: PerCent Viable",62%
same,viability at 20 µg/mL,"[2]; 20 ug/ml, 1 Hour, read-out: Percent Viable of Growth Control",140%
same,viability at 20 µg/mL,"[2]; 20 ug/ml, 3 Hour, read-out: PerCent Viable",44%
same,viability at 20 µg/mL,"[2]; 20 ug/ml, 3 Hour, read-out: Percent Viable of Growth Control",84.6%
same,viability at 20 µg/mL,"[2]; 20 ug/ml, 6 Hour, read-out: PerCent Viable",42%
same,viability at 20 µg/mL,"[2]; 20 ug/ml, 6 Hour, read-out: Percent Viable of Growth Control",72.4%
same,viability at 40 µg/mL,"[2]; 40 ug/ml, 1 Hour, read-out: PerCent Viable",56%
same,viability at 40 µg/mL,"[2]; 40 ug/ml, 1 Hour, read-out: Percent Viable of Growth Control",126%
same,viability at 40 µg/mL,"[2]; 40 ug/ml, 3 Hour, read-out: PerCent Viable",50%
same,viability at 40 µg/mL,"[2]; 40 ug/ml, 3 Hour, read-out: Percent Viable of Growth Control",96.2%
same,viability at 40 µg/mL,"[2]; 40 ug/ml, 6 Hour, read-out: PerCent Viable",49.1%
same,viability at 40 µg/mL,"[2]; 40 ug/ml, 6 Hour, read-out: Percent Viable of Growth Control",84.6%
same,viability at 80 µg/mL,"[2]; 80 ug/ml, 1 Hour, read-out: PerCent Viable",44%
same,viability at 80 µg/mL,"[2]; 80 ug/ml, 1 Hour, read-out: Percent Viable of Growth Control",99.4%
same,viability at 80 µg/mL,"[2]; 80 ug/ml, 3 Hour, read-out: PerCent Viable",36%
same,viability at 80 µg/mL,"[2]; 80 ug/ml, 3 Hour, read-out: Percent Viable of Growth Control",69.2%
same,viability at 80 µg/mL,"[2]; 80 ug/ml, 6 Hour, read-out: PerCent Viable",19%
same,viability at 80 µg/mL,"[2]; 80 ug/ml, 6 Hour, read-out: Percent Viable of Growth Control",32.8%
same,viability at 160 µg/mL,"[2]; 160 ug/ml, 1 Hour, read-out: PerCent Viable",40%
same,viability at 160 µg/mL,"[2]; 160 ug/ml, 1 Hour, read-out: Percent Viable of Growth Control",90.4%
same,viability at 160 µg/mL,"[2]; 160 ug/ml, 3 Hour, read-out: PerCent Viable",47.1%
same,viability at 160 µg/mL,"[2]; 160 ug/ml, 3 Hour, read-out: Percent Viable of Growth Control",90.5%
same,viability at 160 µg/mL,"[2]; 160 ug/ml, 6 Hour, read-out: PerCent Viable",17.3%
same,viability at 160 µg/mL,"[2]; 160 ug/ml, 6 Hour, read-out: Percent Viable of Growth Control",29.8%
same,viability at 320 µg/mL,"[2]; 320 ug/ml, 1 Hour, read-out: PerCent Viable",36%
same,viability at 320 µg/mL,"[2]; 320 ug/ml, 1 Hour, read-out: Percent Viable of Growth Control",81.3%
same,viability at 320 µg/mL,"[2]; 320 ug/ml, 3 Hour, read-out: PerCent Viable",24.5%
same,viability at 320 µg/mL,"[2]; 320 ug/ml, 3 Hour, read-out: Percent Viable of Growth Control",47.2%
same,viability at 320 µg/mL,"[2]; 320 ug/ml, 6 Hour, read-out: PerCent Viable",0%
same,viability at 320 µg/mL,"[2]; 320 ug/ml, 6 Hour, read-out: Percent Viable of Growth Control",0%
same,effect on CFU/ml,"[3]; 80 μg/ml, time zero to 72 hours",only a slight increase in CFU/ml
same,effect on the bacteria,[3]; 160 μg/ml,strong inhibition and killing effect
same,CFU/ml,"[3]; 160 μg/ml, T=24, 48 and 72 hours",0 CFU/ml
same,Relative Sensitivity (Compared to Other Strains Tested),[3]; Streptococcus dysgalactiae (Group G) ATCC 6644,Sensitive
same,Approximate Inhibitory Level,"[3]; Streptococcus dysgalactiae (Group G) ATCC 6644, level at which partial or total inhibition of growth is observed",80 to 160 µg/mL
same,effect on CFU/ml,"[3]; all other concentrations (16, 8, 1.6 μg/ml)",very similar and near the CFU/ml of the Mueller Hinton II broth control
